# Test results reported in patent US12214036B2, “Combination therapy comprising AXL/MER and PD-1/PD-L1 inhibitors” (Incyte Corporation, priority 2020, dated 2025).
# Columns and labels:
# MC38 tumor = MC38 tumor model, combination with checkpoint blockade; type: in vivo, C57BL/6 mice
# Source text: (§1) MBT-2 cells were obtained from the Japanese Collection of Research Bioresources Cell Bank and were maintained in DMEM supplemented with 10% FBS. MC38 cells were obtained from the NCI. 4T1 cells were obtained from ATCC and maintained in RPMI media supplemented with 10% FBS. For MBT-2 experiments, 5×10^5 MBT-2 cells were inoculated subcutaneously into the right hind flank of 6- to 8-week-old C3H mice or athymic nude mice (Charles River Laboratories, Wilmington, Mass.). For MC38 studies, 12-week old female C57BL/6 mice were inoculated with brei of MC38 tumors (in-vivo passage 6) into the right hind flank. For 4T1 studies, 7.5×10^5 4 T1 cells were inoculated subcutaneously into the right hind flank of 6- to 8-week-old female BALB/c mice or athymic nude mice (Charles River Laboratories). Mice were randomized by tumor volume with n=10-12 per group. […] Mice were monitored for tumor growth and overt tolerability over the course of the experiment. […] Tumor volume was calculated using the formula (L×W^2)/2, where L and W refer to the length and width dimensions, respectively. Tumor growth inhibition (TGI) was calculated using the formula (1−(VT/VC))×100, where VT is the tumor volume of the treatment group on the last day of treatment, and VC is the tumor volume of the control group on the last day of treatment. […]
# CTG-1302 tumors = test: Sarcoma PDX model CTG-1302 (leiomyosarcoma); type: in vivo, athymic nude mice; details: CTG-1302, 10, 30, 100 mg/kg BID oral, FIG. 9B
# Source text: as §1, with “Laboratories).” for “Laboratories). Mice were randomized by tumor volume with n=10-12 per group.”
# (§2) The activity of Compound 1 in sarcoma PDX models was evaluated as described in Example H for PDX models. […] Three mice per group were analyzed. […]
# CTG-2426 tumors = test: PDX model CTG-2426 (myxofibrosarcoma); type: in vivo; details: athymic nude mice
# Source text: as §1, with “Laboratories).” for “Laboratories). Mice were randomized by tumor volume with n=10-12 per group.”
# as §2
structure (smiles),measurement,setting,value
"CC(C)C(=O)N1CCC(c2cc(-c3ccc(NC(=O)c4cn(C(C)C)c(=O)n(-c5ccccn5)c4=O)cc3)c3c(N)ncnn23)CC1 [Compound 1, N-(4-(4-Amino-7-(1-isobutyrylpiperidin-4-yl)pyrrolo[1,2-f][1,2,4]triazin-5-yl)phenyl)-1-isopropyl-2,4-dioxo-3-(pyridin-2-yl)-1,2,3,4-tetrahydropyrimidine-5-carboxamide]",antitumor activity (tumor volume),"MC38 tumor; MC38 in C57BL/6 mice, Compound 1 oral BID, anti-PD-L1 15 mg/kg i.p. twice a week, FIG. 8A",single-agent antitumor activity
same,proliferation of CD4+ and CD8+ tumor-infiltrating lymphocytes (Ki67+),"MC38 tumor; MC38 tumors, FIGS. 8B and 8C",induced proliferation
same,antitumor response,CTG-1302 tumors,robust antitumor response
same,TGI (%),CTG-2426 tumors,42%
